Results reported in patent publication US11174223B2, “Compositions, methods, and systems for the synthesis and use of imaging agents” (Lantheus Medical Imaging, Inc., priority 2010, dated 2021).

Columns and labels:
NET [1] = target: T1, NET (Homo sapiens, UniProt P23975); assay: Cell uptake selectivity with and without desipramine in SK-N-SH cells; format: cell-based; parameters: endogenous in cells; host or cells: SK-N-SH
Procedure: (§1) The affinity (Ki) was determined in a competition binding assay by incubating ^19F-imaging agent-1, a cold analog of imaging agent-1, or NE with ^3H-desmethylimipramine in cell membrane overexpressing human NET. The uptake selectivity was assessed by measuring imaging agent-1 or ^3H-NE cell uptake with and without pretreatment of desipramine, a selective NET inhibitor, in SK—N—SH (human neuroblastoma) and PC-12 (rat pheochromocytoma) cells. In SK—NSH cells, the uptake kinetics (Km and Vmax) were evaluated by measuring NET mediated uptake of imaging agent-1 or NE at various concentrations. Imaging agent-1 cardiac image quality was evaluated by PET imaging (˜1.5 mCi, i.v.) in rabbits in the presence and absence of desipramine (1 mg/kg).

[2] = target: T2, norepinephrine transporter (NET), uptake 1 (Oryctolagus cuniculus, UniProt G1TDF9); assay: Heart uptake in rabbits after uptake 1 blockade (desipramine) or 6-hydroxydopamine sympathetic denervation; format: in vivo; conditions: rabbits
T2 construct: from tissue; host or cells: rabbit heart, in vivo
T2 sequence (G1TDF9 1-617): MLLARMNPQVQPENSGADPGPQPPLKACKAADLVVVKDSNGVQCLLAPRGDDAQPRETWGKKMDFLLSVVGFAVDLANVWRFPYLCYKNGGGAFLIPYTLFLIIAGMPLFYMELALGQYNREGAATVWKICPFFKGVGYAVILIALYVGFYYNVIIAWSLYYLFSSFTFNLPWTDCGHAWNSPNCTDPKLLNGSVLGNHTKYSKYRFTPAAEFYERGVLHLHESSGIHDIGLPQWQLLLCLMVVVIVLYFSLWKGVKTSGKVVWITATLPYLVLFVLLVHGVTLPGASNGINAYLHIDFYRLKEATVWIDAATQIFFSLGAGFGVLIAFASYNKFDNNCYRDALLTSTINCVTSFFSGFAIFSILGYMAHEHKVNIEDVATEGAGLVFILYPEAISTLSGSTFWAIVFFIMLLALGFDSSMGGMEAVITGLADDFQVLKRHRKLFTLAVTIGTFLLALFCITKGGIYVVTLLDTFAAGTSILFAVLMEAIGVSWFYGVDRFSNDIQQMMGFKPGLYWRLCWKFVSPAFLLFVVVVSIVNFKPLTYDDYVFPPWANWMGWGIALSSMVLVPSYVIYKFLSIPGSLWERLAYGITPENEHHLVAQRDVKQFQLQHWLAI
Procedure: Imaging agent-1 was designed as a substrate for the norepinephrine transporter (NET) to image the cardiac sympathetic nervous system. […] These values were similar to that of MIBG (2.12±0.26 μM and 4.76±0.78 pmol/min/million cells). In animals, tissue biodistribution of imaging agent-1 was assessed by tissue sampling at 15- and 60-minute following administration. Heart uptake was 2.36±0.16 and 2.17±0.12% injected dose per g tissue (% ID/g) in rats and 0.25±0.03 and 0.28±0.03% ID/g in rabbits. In rabbits, desipramine (1 mg/kg) inhibited heart uptake of imaging agent-1 by 68% and ^123I-MIBG uptake by 55% at 1 hour post dose.
Desipramine, a selective uptake 1 inhibitor, was used to block cardiac uptake 1 in rats (10 mg/kg, ip), rabbits (1 mg/kg iv), and NHPs (0.5 mg/kg, iv). 6-hydroxydopamine, a neurotoxin, was injected to induce sympathetic denervation in rats (100 mg/kg ip for 7 days) and rabbits (25 mg/kg iv on day 1, 2, 7, and 8). Imaging agent-1 heart uptake in comparison with MIBG was assessed by tissue sampling at 60 minutes post imaging agent injection. Imaging was also performed with (2-tert-butyl-4-chloro-5-[4-(2-[^18F]fluoroethoxymethyl)-benzyloxy]-2H-pyridazin-3-1.

NET [3] = target: T1, NET; assay: Effect of heart failure medications on NET mediated imaging agent-1 uptake in SK-N-SH cells; format: cell-based; parameters: endogenous in cells; host or cells: SK-N-SH; conditions: 1 million cells, 60 minutes
NET [4] = target: T1, NET; assay: Competition binding assay in cell membranes over-expressing human NET; parameters: expressed in transfected cells
Procedure: Imaging agent-1 was designed as a substrate for the norepinephrine transporter (NET) to image the cardiac sympathetic nervous system. […] In animals, tissue biodistribution of imaging agent-1 was assessed by tissue sampling at 15- and 60-minute following administration.
as §1, with “The uptake selectivity was assessed by measuring imaging agent-1 or ^3H-NE cell uptake with and without pretreatment of desipramine, a selective NET inhibitor, in SK—N—SH (human neuroblastoma) and PC-12 (rat pheochromocytoma) cells.” left out

[5] = Dosimetry in non-human primates to estimate human radiation dosimetry; format: in vivo, cynomolgus monkeys
Procedure: Dosimetry in non-human primates of imaging agent-1 was examined. Imaging agent-1, which is labeled with ^18F, is a novel norepinephrine transporter (NET) ligand and was a useful radiotracer for mapping the cardiac nerve terminal in vivo using positron emission tomography. A study was performed in four non-human primates to estimate human radiation dosimetry.
In this study two male and two female cynomolgus monkeys were imaged using a Concord Focus 220 MicroPET scanner for whole body ^18F distribution following 4 to 5 mCi (0.65 to 1.6 μg) single intravenous injection of imaging agent-1. Under isoflurane anesthesia, images of the animals from head to lower abdomen were acquired in 5 segments over four and half hours following injection. Radioactivity in identifiable organs and the remainder of the body was determined as a function of time using region-of-interest analysis. The total number of disintegrations per unit injected dose was determined by normalizing by the injected radioactivity and integrating over time the data for radioactivity versus time. Using the OLINDA/EXM software (Organ Level Internal Dose Assessment/EXponential Modeling Software, published by Vanderbilt University), the normalized number of ^18F disintegrations for each organ was combined with the energy released by each disintegration, and using the MIRD schema, estimates were made of the fraction of the total released energy that was retained in each source organ and the contribution from each source organ to the energy deposited in surrounding target organs for an adult human. Dividing the total fractional energy deposited in each organ by the corresponding organ mass yielded the radiation dose for that organ per unit (mCi or MBq) injected dose.

[6] = estimated from cynomolgus monkey PET

T1 sequence (P23975 whole entry): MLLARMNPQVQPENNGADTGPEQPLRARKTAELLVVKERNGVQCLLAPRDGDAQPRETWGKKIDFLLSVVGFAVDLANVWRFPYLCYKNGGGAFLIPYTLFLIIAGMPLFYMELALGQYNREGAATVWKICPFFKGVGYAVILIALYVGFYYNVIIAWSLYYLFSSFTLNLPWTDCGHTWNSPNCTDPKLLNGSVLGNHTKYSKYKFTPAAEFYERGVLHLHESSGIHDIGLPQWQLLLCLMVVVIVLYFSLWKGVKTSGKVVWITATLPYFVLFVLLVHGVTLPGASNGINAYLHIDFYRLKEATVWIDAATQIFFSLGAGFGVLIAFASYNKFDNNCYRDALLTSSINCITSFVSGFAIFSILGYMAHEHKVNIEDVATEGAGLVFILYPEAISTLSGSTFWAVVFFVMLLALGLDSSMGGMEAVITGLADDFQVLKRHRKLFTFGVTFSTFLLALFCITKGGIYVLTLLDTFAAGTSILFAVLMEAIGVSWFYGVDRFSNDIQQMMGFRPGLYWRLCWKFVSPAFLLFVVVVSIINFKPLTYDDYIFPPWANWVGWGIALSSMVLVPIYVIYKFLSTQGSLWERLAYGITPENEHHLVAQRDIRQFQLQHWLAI

Inhibition of cell uptake by blockade of NET (desipramine) (NET [1]): 91±1%
Decrease in heart uptake after sympathetic denervation with 6-hydroxydopamine ([2]; 6-OHDA i.v.): 79%
Inhibition of heart uptake by desipramine (uptake 1 blockade) ([2]; desipramine 1 mg/kg, 1 hour post dose): 68%
Cell uptake (NET [3]): 26±2%
Ki (NET [4]; Example 25, cell membranes over-expressing the human NET): 5.16 ± 0.93 µM
Ki (NET [4]; Example 27, ^19F cold analog or NE vs ^3H-desmethylimipramine, membrane overexpressing human NET): 5.2 ± 1.1 µM
Maximum administered dose that does not exceed 10 mSv effective dose ([5]; based on average values): 14 mCi
Maximum dose that may be administered to a human without exceeding 50 mSv (5 rem) to the urinary bladder ([5]; based on average values): 12 mCi
Mean effective dose as defined in ICRP 60 [5, 6]: 0.070±0.0059 rem/mCi
Mean whole body dose estimate [5, 6]: 0.044±0.00031 rem/mCi
Predicted human radiation dose estimate, adrenals [5, 6]: 0.14±0.027 rem/mCi
Predicted human radiation dose estimate, heart wall [5, 6]: 0.085±0.014 rem/mCi
Predicted human radiation dose estimate, kidneys [5, 6]: 0.15±0.088 rem/mCi
Predicted human radiation dose estimate, osteogenic cells [5, 6]: 0.084±0.0048 rem/mCi
Predicted human radiation dose estimate, red bone marrow [5, 6]: 0.083±0.0099 rem/mCi
Predicted human radiation dose estimate, urinary bladder wall ([5]; estimated from cynomolgus monkey PET, OLINDA/EXM): 0.41±0.089 rem/mCi
SMILES: N=C(N)NCc1ccc(OCCC[18F])c(Br)c1 [imaging agent-1, 1-{3-Bromo-4-[3-[^18F]fluoropropoxy]benzyl}guanidine]
